One assay relates to HCV replicon genotype 1a. The experiment in a line: HCV replicon assay, genotype 1a (cell ELISA for replicon-encoded NS3/4A). In kind it is cell-based, hepatitis C virus (HCV). The protocol:
Measurement of inhibition by compounds was performed using the HCV replicon system. Several different replicons encoding different HCV genotypes or mutations were used. In addition, potency measurements were made using different formats of the replicon assay, including different ways of measurements and different plating formats. See Jan M. Vrolijk et al., A replicons-based bioassay for the measurement of interferons in patients with chronic hepatitis C, 110 J. V[…] 201 (2003); Steven S. Carroll et al., Inhibition of Hepatitis C Virus RNA Replication by 2′-Modified Nucleoside Analogs, 278(14) J. BIOLOGICAL CHEMISTRY 11979 (2003). However, the underlying principles are common to all of these determinations, and are outlined below.
(§1) Stable neomycin phosphotransferase encoding replicons-harboring cell lines were used, so all cell lines were maintained under G418 selection prior to the assay. Potency was determined using a cell ELISA assay with an antibody to the replicons encoded NS3/4a protease. See Caterina Trozzi et al., In Vitro Selection and Characterization of Hepatitis C Virus Serine Protease Variants Resistant to an Active-Site Peptide Inhibitor, 77(6) J. Virol. 3669 (2003). To initiate an assay, replicon cells were plated in the presence of a dilution series of test compound in the absence of G418. Typically, the assays were performed in a 96-well plate formate for manual operation, or a 384-well plate format for automated assay. Replicon cells and compound were incubated for 96 hours. At the end of the assay, cells were washed free of media and compound, and the cells were then lysed. RNA was quantified indirectly through detection of replicon-encoded NS3/4A protein levels, through an ELISA-based assay with an antibody specific for NS3/4A. IC50 determinations were calculated as a percentage of a DMSO control by fitting the data to a four-parameter fit function and the data obtained is provided in the table below.
(§2) Data for selected compounds of the present invention was obtained for genotypes 1a and 1b using this method and is provided in the table below: […]

The subject of a further assay is HCV replicon genotype 1b. The experiment in a line: HCV replicon assay, genotype 1b (cell ELISA for replicon-encoded NS3/4A). In kind it is cell-based, hepatitis C virus (HCV). The protocol:
The HCV NS5B inhibitory activity of the present compounds may be tested using assays known in the art. The HCV NS5B polymerase inhibitors described herein have activities in a genotype 1b replicon assay as described in the Examples. The assay is performed by incubating a replicon harboring cell-line in the presence of inhibitor for a set period of time and measuring the effect of the inhibitor on HCV replicon replication either directly by quantifying replicon RNA level, or indirectly by measuring enzymatic activity of a co-encoded reporter enzyme such as luciferase or β-lactamase. By performing a series of such measurements at different inhibitor concentrations, the effective inhibitory concentration of the inhibitor (EC50 or EC90) is determined See Jan M. Vrolijk et al., A replicons-based bioassay for the measurement of interferons in patients with chronic hepatitis C, 110 J. VIROLOGICAL METHODS 201 (2003). Such assays may also be run in an automated format for high through-put screening. See Paul Zuck et al., A cell-based β-lactamase reporter gene assay for the identification of inhibitors of hepatitis C virus replication, 334 ANALYTICAL BIOCHEMISTRY 344 (2004).
Measurement of inhibition by compounds was performed using the HCV replicon system. Several different replicons encoding different HCV genotypes or mutations were used. In addition, potency measurements were made using different formats of the replicon assay, including different ways of measurements and different plating formats. See Jan M. Vrolijk et al., A replicons-based bioassay for the measurement of interferons in patients with chronic hepatitis C, 110 J. VIROLOGICAL METHODS 201 (2003); Steven S. Carroll et al., Inhibition of Hepatitis C Virus RNA Replication by 2′-Modified Nucleoside Analogs, 278(14) J. BIOLOGICAL CHEMISTRY 11979 (2003). However, the underlying principles are common to all of these determinations, and are outlined below.
as §1, §2

Setting [1] is: Hepatitis C virus, 96 h, read-out: 1a IC50 (nM), genotype 1a replicon cells, 96 hours incubation, NS3/4A ELISA readout, % of DMSO control.
The mark [2] stands for this setting: Hepatitis C virus, 96 h, read-out: 1b IC50 (nM), genotype 1b replicon cells, 96 hours incubation, NS3/4A ELISA readout, % of DMSO control.
[3] abbreviates: read-out: 1a IC50, genotype 1a replicon cells, 96 hours incubation, NS3/4A ELISA readout, % of DMSO control.
The mark [4] stands for this setting: read-out: 1b IC50, genotype 1b replicon cells, 96 hours incubation, NS3/4A ELISA readout, % of DMSO control.

Where two headings read alike, the source gives them in different places.

23 compounds from patent US9493461B2, “Tetracyclic heterocycle compounds and methods of use thereof for the treatment of hepatitis C” (priority 2013, dated 2016) can be followed below.

As to `CNC(=O)c1c(-c2ccc(F)cc2F)oc2cc(N(C)S(C)(=O)=O)c(-c3ccc4ncn5c6cccc(F)c6cc5c4n3)cc12` [Example 9, 2-(2,4-difluorophenyl)-5-(11-fluoropyrido[3′,2′:4,5]pyrimido[1,6-a]indol-2-yl)-N-methyl-6-(N-methylmethylsulfonamido)benzofuran-3-carboxamide], the IC50 in the assay on HCV replicon genotype 1a (setting [1]) was found to be 1.16 nM; with HCV replicon genotype 1b (setting [2]), 1.99 nM.

On to `CNC(=O)c1c(-c2ccc(F)cc2)oc2cc(N(C)S(C)(=O)=O)c(-c3ccc4nc(C(C)N5CC(F)C5)n5c6cccc(F)c6cc5c4n3)cc12` (single isomer, unassigned) [Example 40, (S or R)-5-(11-fluoro-6-(1-(3-fluoroazetidin-1-yl)ethyl)pyrido[3′,2′:4,5]pyrimido[1,6-a]indol-2-yl)-2-(4-fluorophenyl)-N-methyl-6-(N-methylmethylsulfonamido)benzofuran-3-carboxamide], for which the IC50 in the assay with HCV replicon genotype 1a (setting [3]) is 3.91 nM; in the assay on HCV replicon genotype 1b (setting [4]), 4.42 nM.

In the case of `CNC(=O)c1c(-c2ccc(F)cc2)oc2cc(N(C)S(C)(=O)=O)c(-c3ccc4nc(CN5CC6(CCOCC6)C5)n5c6cccc(C#N)c6cc5c4n3)cc12` [Example 127], the values for the IC50 with HCV replicon genotype 1a (setting [1]) and in the assay on HCV replicon genotype 1b (setting [2]) were 1.5 nM and 2.57 nM, respectively.

Take `CNC(=O)c1c(-c2ccc(C)nc2)oc2cc(N(C)S(C)(=O)=O)c(-c3ccc4ncn5c6cccc(F)c6cc5c4n3)cc12` [Example 5]: the IC50 is 3.7 nM in the assay on HCV replicon genotype 1a (setting [1]) and 7.4 nM in the assay on HCV replicon genotype 1b (setting [2]).

For `CNC(=O)c1c(-c2ccc(F)cc2F)oc2cc(N(C)S(C)(=O)=O)c(-c3ccc4nc(CN5CC6CC5CO6)n5c6cccc(F)c6cc5c4n3)cc12` (stereo not shown) [Example 146], the IC50 in the assay on HCV replicon genotype 1a (setting [1]) and with HCV replicon genotype 1b (setting [2]) was 3.38 nM each time.

Regarding `CNC(=O)c1c(-c2ccc(F)cc2)oc2cc(N(C)S(C)(=O)=O)c(-c3ccc4[nH]c(=O)n5c6cccc(F)c6cc5c4n3)cc12` [Example 22], the IC50 in the assay with HCV replicon genotype 1a (setting [1]) is 4.34 nM; in the assay on HCV replicon genotype 1b (setting [2]) it was 3.42 nM.

For `CNC(=O)c1c(-c2ccc(F)cc2)oc2cc(N(C)S(C)(=O)=O)c(-c3ccc4nc(CN5CC(F)C5)n5c6cccc(F)c6cc5c4n3)cc12` [Example 76, 3-fluoro-1-((11-fluoro-2-(2-(4-fluorophenyl)-3-(methylcarbamoyl)-6-(N-methylmethylsulfonamido)benzofuran-5-yl)pyrido[3′,2′:4,5]pyrimido[1,6-a]indol-6-yl)methyl)azetidin-1-ium methanesulfonate], the IC50 with HCV replicon genotype 1a (setting [1]) was found to be 4.13 nM; in the assay on HCV replicon genotype 1b (setting [2]), 3.78 nM.

As for `CNC(=O)c1c(-c2ccc(F)cc2)oc2cc(N(C)S(C)(=O)=O)c(-c3ccc4nc(CN5CC[C@@H](OC)C5)n5c6cccc(F)c6cc5c4n3)cc12` [Example 100], the values for the IC50 with HCV replicon genotype 1a (setting [1]) and with HCV replicon genotype 1b (setting [2]) were 2.6 nM and 4.46 nM, respectively.

For `CNC(=O)c1c(-c2ccc(F)cc2C)oc2cc(N(C)S(C)(=O)=O)c(-c3ccc4ncn5c6cccc(F)c6cc5c4n3)cc12` [Example 6], the IC50 with HCV replicon genotype 1a (setting [1]) was 3.2 nM; in the assay on HCV replicon genotype 1b (setting [2]) it was 5.08 nM.

Turning to `CNC(=O)c1c(-c2ccc(F)cc2)oc2cc(N(C)S(C)(=O)=O)c(-c3ccc4nc(CN5C[C@H](F)[C@@H](F)C5)n5c6cccc(F)c6cc5c4n3)cc12` [Example 101], the IC50 with HCV replicon genotype 1a (setting [1]) came to 3.13 nM; in the assay with HCV replicon genotype 1b (setting [2]), 4.24 nM.

`CNC(=O)c1c(-c2ccc(F)cc2)oc2cc(N(C)S(C)(=O)=O)c(-c3ccc4nc(CN5CC(OC)C5)n5c6cccc(C#N)c6cc5c4n3)cc12` [Example 125]: the IC50 in the assay on HCV replicon genotype 1a (setting [1]) is 2.32 nM; with HCV replicon genotype 1b (setting [2]), 3.21 nM.

Turning to `CNC(=O)c1c(-c2ccc(F)cc2)oc2cc(N(C)S(C)(=O)=O)c(-c3ccc4nc(CN5CCC(F)(F)C5)n5c6cccc(C#N)c6cc5c4n3)cc12` [Example 122], the IC50 in the assay on HCV replicon genotype 1a (setting [1]) is 2.44 nM; in the assay with HCV replicon genotype 1b (setting [2]) it was 3.46 nM.

On to `CNC(=O)c1c(-c2ccc(F)cc2)oc2cc(N(C)S(C)(=O)=O)c(-c3ccc4nc(CN5CC(S(C)(=O)=O)C5)n5c6cccc(F)c6cc5c4n3)cc12` [Example 107], for which the IC50 in the assay on HCV replicon genotype 1a (setting [1]) is 3.33 nM; with HCV replicon genotype 1b (setting [2]), 3.04 nM.

Take `CNC(=O)c1c(-c2ccc(F)cc2F)oc2cc(N(C)S(C)(=O)=O)c(-c3cc4c(cn3)ncn3c5cccc(F)c5cc43)cc12` [Example 75]: the IC50 worked out at 1.03 nM with HCV replicon genotype 1a (setting [1]) and 2.78 nM with HCV replicon genotype 1b (setting [2]).

Consider `CNC(=O)c1c(-c2ccc(F)cc2)oc2cc(N(C)S(C)(=O)=O)c(-c3cc4c(cn3)nc(CN3CCOCC3)n3c5cccc(F)c5cc43)cc12` [Example 112], for which the IC50 with HCV replicon genotype 1a (setting [1]) turned out to be 2.02 nM; in the assay on HCV replicon genotype 1b (setting [2]), 3.45 nM.

Consider `CNC(=O)c1c(-c2ccc(F)cc2)oc2cc(N(C)S(C)(=O)=O)c(-c3ccc4nc(CN5CC(F)(F)C5)n5c6cccc(C#N)c6cc5c4n3)cc12` [Example 124], for which the IC50 was 1.89 nM in the assay on HCV replicon genotype 1a (setting [1]) and 1.76 nM in the assay on HCV replicon genotype 1b (setting [2]).

With `CNC(=O)c1c(-c2ccc(F)cc2)oc2cc(N(C)S(C)(=O)=O)c(-c3ccc4nc(CN5CC6(CCOCC6)C5)n5c6cccc(F)c6cc5c4n3)cc12` [Example 79], the figures for the IC50 with HCV replicon genotype 1a (setting [1]) and in the assay on HCV replicon genotype 1b (setting [2]) were 2.37 nM and 3.99 nM, respectively.

Take `CNC(=O)c1c(-c2ccc(F)cc2)oc2cc(N(C)S(C)(=O)=O)c(-c3ccc4nc(CN5CC(F)(C#N)C5)n5c6cccc(F)c6cc5c4n3)cc12` [Example 110]: the IC50 in the assay with HCV replicon genotype 1a (setting [1]) came to 4.04 nM; in the assay on HCV replicon genotype 1b (setting [2]), 5.51 nM.

Consider `CNC(=O)c1c(-c2ccc(F)cc2)nn2cc(N(C)S(C)(=O)=O)c(-c3ccc4ncn5c6cccc(F)c6cc5c4n3)cc12` [Example 16, 2-(4-fluorophenyl)-5-(11-fluoropyrido[3′,2′:4,5]pyrimido[1,6-a]indol-2-yl)-N-methyl-6-(N-methylmethylsulfonamido)pyrazolo[1,5-a]pyridine-3-carboxamide], for which the IC50 stood at 0.954 nM in the assay on HCV replicon genotype 1a (setting [1]) and 2.22 nM in the assay on HCV replicon genotype 1b (setting [2]).

For the compound `CCc1ncc(-c2oc3cc(N(C)S(C)(=O)=O)c(-c4ccc5ncn6c7cccc(F)c7cc6c5n4)cc3c2C(=O)NC)s1` [Example 53, 2-(2-ethylthiazol-5-yl)-5-(11-fluoropyrido[3′,2′:4,5]pyrimido[1,6-a]indol-2-yl)-N-methyl-6-(N-methylmethylsulfonamido)benzofuran-3-carboxamide], the IC50 is 7.79 nM with HCV replicon genotype 1a (setting [1]) and 6.37 nM in the assay with HCV replicon genotype 1b (setting [2]).

In the case of `CNC(=O)c1c(-c2ccc(F)cc2)oc2cc(N(C)S(C)(=O)=O)c(-c3ccc4nc(CN5CC(C(C)(C)O)C5)n5c6cccc(F)c6cc5c4n3)cc12` [Example 97], the figures for the IC50 with HCV replicon genotype 1a (setting [1]) and in the assay on HCV replicon genotype 1b (setting [2]) were 2.98 nM and 3.49 nM, respectively.

Turning to `CNC(=O)c1c(-c2ccc(F)cc2)oc2cc(N(C)S(C)(=O)=O)c(-c3ccc4ncn5c6cccc(F)c6cc5c4n3)cc12` [Example 55, 2-(4-fluorophenyl)-5-(11-fluoropyrido[3′,2′:4,5]pyrimido[1,6-a]indol-2-yl)-N-methyl-6-(N-methylmethylsulfonamido)benzofuran-3-carboxamide], the IC50 in the assay with HCV replicon genotype 1a (setting [3]) is 1.55 nM; with HCV replicon genotype 1b (setting [4]), 2.01 nM.

Consider `CNC(=O)c1c(-n2cnc(C)n2)oc2cc(N(C)S(C)(=O)=O)c(-c3ccc4ncn5c6cccc(F)c6cc5c4n3)cc12` [Example 13], for which the IC50 was 298 nM with HCV replicon genotype 1a (setting [1]) and 99.5 nM in the assay on HCV replicon genotype 1b (setting [2]).
